The values that follow come from patent US20080318977A1, “Condensed Pyridines as Kinase Inhibitors” (Palau Pharma, S.A., priority 2004, published 2008).

One may read the inhibition as the change of the read-out against control, counted positive when it falls. A high value points to strong suppression.

The target in this test is T1, p38α (Homo sapiens, UniProt Q16539).
T1 construct: GST-tagged fusion protein corresponding to full-length human p38α; purchased Upstate 14-251; host or cells: E. coli
T1 sequence (Q16539 whole entry, the tested form may be a part): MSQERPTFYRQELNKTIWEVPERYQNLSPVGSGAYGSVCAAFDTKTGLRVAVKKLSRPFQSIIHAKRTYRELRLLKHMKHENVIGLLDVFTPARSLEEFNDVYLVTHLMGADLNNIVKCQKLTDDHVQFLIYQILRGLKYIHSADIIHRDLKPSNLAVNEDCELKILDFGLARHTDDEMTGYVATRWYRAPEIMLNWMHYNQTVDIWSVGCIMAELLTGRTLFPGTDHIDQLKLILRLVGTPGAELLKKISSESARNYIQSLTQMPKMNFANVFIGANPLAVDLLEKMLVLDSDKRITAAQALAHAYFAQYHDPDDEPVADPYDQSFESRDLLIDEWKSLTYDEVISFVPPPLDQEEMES
Kind of test: Inhibition of p38α enzyme activity (IMAP fluorescence polarisation kinase assay). The class given is biochemical. Conditions: at 1 μM compound; ATP 20 μM; 2 h at RT. As to the method:
Inhibition of p38α Enzyme Activity:
Compound stocks in 100% DMSO are first diluted in DMSO to a concentration of 1×10^−3 up to 3.2×10^−8 M and then further diluted in kinase assay buffer (10 mM Tris-HCl, pH 7.2, 10 mM MgCl2, 0.01% tween 20, 0.05% NaN3, 1 mM dithiothreitol) to a concentration range of 4×10^−5 up to 1.3×10^−9 M. Of each compound solution 5 μL is transferred into a 384-wells black Optiplate (Packard, 6007279), followed by the addition of 5 μL of ATP (Boehringer, 519987), 5 μL of Fluorescein-labeled EGFR (Epidermal Growth Factor Receptor) peptide substrate and 5 μL of active p38 cc kinase (GST-tagged fusion protein corresponding to full-length human p38α; expressed in E. coli by Upstate, 14-251), all diluted in kinase assay buffer (see final concentrations in Table 1). The mixture is incubated for 2 h at room temperature (RT). The reaction is stopped by the addition of 60 μL of IMAP binding reagent, which has been diluted 400-fold in IMAP binding buffer (stock concentration 5 times diluted in Milli Q). After incubation for 30 min at RT, FP is measured on an Analyst™ multimode fluorescence plate reader (Molecular Devices) at excitation wavelength of 485 nm and emission wavelength of 530 nm (1 sec/well).
Data handling is performed as follows: percentage effects are calculated based on no-p38-enzyme-addition as the maximum inhibitory effect and with p38 enzyme addition as the minimum inhibitory effect. In each experiment, individual compound concentrations are tested in duplicate and percentage effect is calculated for each concentration.
In turn, `Cn1c(C(N)=O)cc2nc(-c3ccc(F)cc3)c(-c3ccncc3)c(-c3ccc(F)cc3)c21` [Example 12, 5,7-Bis(4-fluorophenyl)-1-methyl-6-(4-pyridyl)pyrrolo[3,2-b]pyridine-2-carboxamide] yielded an inhibition at 1 µM of over 50%.
Under `COCCNCc1cc2nc(-c3ccc(F)cc3)c(-c3ccncc3)c(-c3ccc(F)cc3)c2n1C` [Example 32, [5,7-Bis-(4-fluoro-phenyl)-1-methyl-6-pyridin-4-yl-1H-pyrrolo[3,2-b]pyridin-2-ylmethyl]-(2-methoxy-ethyl)-amine] stands over 50%; under `CC(=O)c1cc2nc(-c3ccc(F)cc3)c(-c3ccncc3)c(-c3ccc(F)cc3)c2n1C` [Example 21, 1-[5,7-Bis(4-fluorophenyl)-1-methyl-6-(4-pyridyl)pyrrolo[3,2-b]pyridin-2-yl]ethanone], over 50%.
Consider `Cc1nsc2nc(-c3ccc(F)cc3)c(-c3ccnc(N[C@@H](C)c4ccccc4)n3)cc12` [Example 45, (S)-{4-[6-(4-Fluoro-phenyl)-3-methyl-isothiazolo[5,4-b]pyridin-5-yl]-pyrimidin-2-yl}-(1-phenyl-ethyl)-amine], for which the inhibition at 1 µM is over 50%.
Under `COc1ccc(-c2nc3cc[nH]c3cc2-c2ccnc(N[C@@H](C)c3ccccc3)n2)cc1` [Example 47, (S)-{4-[5-(4-Methoxy-phenyl)-1H-pyrrolo[3,2-b]pyridin-6-yl]-pyrimidin-2-yl}-(1-phenyl-ethyl)-amine] stands over 50%.
Under `COC(=O)CNCc1cc2nc(-c3ccc(F)cc3)c(-c3ccncc3)c(-c3ccc(F)cc3)c2n1C` [Example 34, {[5,7-Bis-(4-fluoro-phenyl)-1-methyl-6-pyridin-4-yl-1H-pyrrolo[3,2-b]pyridin-2-ylmethyl]-amino}-acetic acid methyl ester] stands over 50%; under `CCN(CC(=O)OC)Cc1cc2nc(-c3ccc(F)cc3)c(-c3ccncc3)c(-c3ccc(F)cc3)c2n1C` [Example 35, {[5,7-Bis-(4-fluoro-phenyl)-1-methyl-6-pyridin-4-yl-1H-pyrrolo[3,2-b]pyridin-2-ylmethyl]-N-ethyl-amino}-acetic acid methyl ester], over 50%; under `Cn1c(C(=O)N2CCOCC2)cc2nc(-c3ccc(F)cc3)c(-c3ccncc3)c(-c3ccc(F)cc3)c21` [Example 14, [5,7-Bis(4-fluorophenyl)-1-methyl-6-(4-pyridyl)pyrrolo[3,2-b]pyridin-2-yl]morpholin-4-ylmethanone], over 50%.
Under `COC(=O)c1n[nH]c2c(-c3ccc(F)cc3)c(-c3ccncc3)c(-c3ccc(F)cc3)nc12` [Example 39, 5,7-Bis-(4-fluoro-phenyl)-6-pyridin-4-yl-1H-pyrazolo[4,3-b]pyridine-3-carboxylic acid methyl ester] stands over 50%; under `Cn1ccc2nc(-c3ccc(F)cc3)c(-c3ccncc3)c(-c3ccc(F)cc3)c21` [Example 37, 5,7-Bis-(4-fluoro-phenyl)-1-methyl-6-pyridin-4-yl-1H-pyrrolo[3,2-b]pyridine], over 50%.
